Source: PubChem BioAssay AID1845207 (Molecular Pharmacology Branch, DTP, NCI, 2023)

Tested on: NCI-H1876 tumor spheroid viability
Assay: Anticancer human tumor NCI-H1876 cell line growth inhibition;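 also: spheroids exposed to compounds for seven days before the viability read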;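 as to viability, T/C: percent of DMSO vehicle control viability so 100% = vehicle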
Details: spheroids with HUVEC and MSC; for IC50: curve of first compound; for viability, T/C: stronger effect = lower value
From the text: Multicellular complex tumor spheroid response to DNA repair inhibitors in combination with DNA-damaging drugs
This study explores the anticancer activities of DNA-damaging drugs and inhibitors of DNA damage repair, both as single agents and in combinations. Complex tumor spheroids comprised of malignant cells, endothelial cells and mesenchymal stem cells served as an in vitro model for human solid tumors. This model system incorporates physiologically relevant features and patient-derived or established malignant cell lines with clinically relevant genetic alterations from many tumor types. Twenty-six patient-derived or established malignant cell lines were evaluated representing sarcoma, melanoma, small cell lung cancer (SCLC), non-small cell lung cancer (NSCLC), as well as bladder, ovarian and pancreatic cancers. The concentration ranges selected for each drug and investigational agent were based upon clinically achievable concentrations if the clinical Cmax of the agent was known.
Compounds. The drugs and compounds olaparib (NSC753686), talazoparib (NSC767125), berzosertib (NSC777718), elimusertib (NSC800525), nedisertib (NSC802822), VX-984 (NSC792969), AZD-1390 (NSC803789), temozolomide (NSC362856), topotecan (NSC609699), trabectedin (NSC813783), staurosporine (NSC755774), and gemcitabine (NSC613327) were obtained from the National Cancer Institute (NCI) Developmental Therapeutics Program Chemical Repository. The FDA-approved anticancer drug set is available from the Developmental Therapeutics Program at https://dtp.cancer.gov/organization/dscb/obtaining/available_plates.htm. […] The stock solutions were prepared in dimethyl sulfoxide (DMSO, Sigma-Aldrich, St. Louis, MO, cat. D2650) at 400-fold the tested concentration and stored at -70 degrees C. Prior to their use, the stock solutions were diluted in fresh medium and the final DMSO concentration in the assay was 0.25% (v/v). All drugs and investigational agents were tested over a range starting from a high concentration at or near the clinical Cmax and decreasing in half-log increments. If the clinical Cmax for an agent had not been determined, the highest concentration tested was 10 microM.
Cell Lines. The patient-derived cancer cell (PDC) lines: 156681-154-R-J1-PDC, 283228-195-R-J1-PDC, 287954-098-R-J1-PDC, 292921-168-R-J2-PDC, 349418-098-R-PDC, 425362-245-T-J1-PDC, 556581-035-R-J1-PDC, and BL0293-F563-PDC were received from the NCI Patient-Derived Models Repository (PDMR, https://pdmr.cancer.gov). The established cell lines HS-SY-2 (RRID:CVCL_8719), MPNST, and SYO-1 (RRID:CVCL_7146) were obtained from the Sloan Kettering Institute. The alveolar soft parts sarcoma cell line ASPS-1 (RRID:CVCL_S738) was established at the NCI and grown from internal seed stocks. The following established cell lines were purchased from the American Type Culture Collection (ATCC, Manassas, VA): G-401 (ATCC, cat. CRL-1441, RRID:CVCL_0270), SW982 (ATCC, cat. HTB-93, RRID:CVCL_1734), VA-ES-BJ (ATCC, cat. CRL-2138, RRID:CVCL_1785), NCI-H719 (ATCC, cat. CRL-5837, RRID:CVCL_1582), NCI-H196 (ATCC, cat. CRL-5823, RRID:CVCL_1509), NCI-H841 (ATCC, cat. CRL-5845, RRID:CVCL_1595), NCI-H1618 (ATCC, cat. CRL-5879, RRID:CVCL_1480), NCI-H1876 (ATCC, cat. CRL-5902, RRID:CVCL_1503), DMS 114 (ATCC, cat. CRL-2066; RRID:CVCL_1174), NCI-H211 (ATCC, cat. CRL-5824; RRID:CVCL_1529), and SW 1271 (ATCC, cat. CRL-2177, RRID:CVCL_1716). The small cell lung cancer cell line COR-L88 was purchased from Sigma-Aldrich (cat. 92031917-1VL, RRID:CVCL_1141). The non-small cell lung cancer cell lines NCI-H226 (RRID:CVCL_1544) and NCI-H322M (RRID:CVCL_1557) were established at the NCI and grown from internal seed stocks. Pooled donor human umbilical vein endothelial cells (HUVEC, Lonza, cat. CC-2519) and human mesenchymal stem cells (hMSC, Lonza, cat. PT-2501) were purchased from Lonza (Walkersville, MD).
Cell Culture. All cells were maintained in an incubator at 37 degrees C and 5% CO2 with 95% humidity. […]

[1] = second compound 0.003 µM, first compound 0.00949 µM
[2] = second compound 0.003 µM, first compound 0.03 µM
[3] = second compound 0.003 µM, first compound 0.0949 µM
[4] = second compound 0.003 µM, first compound 0.3 µM
[5] = second compound 0.003 µM, first compound 0.949 µM
[6] = second compound 0.003 µM, first compound 3 µM
[7] = second compound 0.00949 µM, first compound 0.00949 µM
[8] = second compound 0.00949 µM, first compound 0.03 µM
[9] = second compound 0.00949 µM, first compound 0.0949 µM
[10] = second compound 0.00949 µM, first compound 0.3 µM
[11] = second compound 0.00949 µM, first compound 0.949 µM
[12] = second compound 0.00949 µM, first compound 3 µM
[13] = second compound 0.03 µM, first compound 0.00949 µM
[14] = second compound 0.03 µM, first compound 0.03 µM
[15] = second compound 0.03 µM, first compound 0.0949 µM
[16] = second compound 0.03 µM, first compound 0.3 µM
[17] = second compound 0.03 µM, first compound 0.949 µM
[18] = second compound 0.03 µM, first compound 3 µM
[19] = second compound 0.0949 µM, first compound 0.00949 µM
[20] = second compound 0.0949 µM, first compound 0.03 µM
[21] = second compound 0.0949 µM, first compound 0.0949 µM
[22] = second compound 0.0949 µM, first compound 0.3 µM
[23] = second compound 0.0949 µM, first compound 0.949 µM
[24] = second compound 0.0949 µM, first compound 3 µM
[25] = second compound 0.3 µM, first compound 0.00949 µM
[26] = second compound 0.3 µM, first compound 0.03 µM
[27] = second compound 0.3 µM, first compound 0.0949 µM
[28] = second compound 0.3 µM, first compound 0.3 µM
[29] = second compound 0.3 µM, first compound 0.949 µM
[30] = second compound 0.3 µM, first compound 3 µM

CNCc1ccc(-c2cc(-c3nc(-c4ccc(S(=O)(=O)C(C)C)cc4)cnc3N)on2)cc1 + CC[C@@]1(O)C(=O)OCc2c1cc1n(c2=O)Cc2cc3c(CN(C)C)c(O)ccc3nc2-1
IC50 (second compound 0.003 µM): 56.8 nM
IC50 (second compound 0.00949 µM): < 9.49 nM
IC50 (second compound 0.03 µM): < 9.49 nM
IC50 (second compound 0.0949 µM): < 9.49 nM
IC50 (second compound 0.3 µM): < 9.49 nM
viability, T/C [1]: 68%
viability, T/C [2]: 57.6%
viability, T/C [3]: 34%
viability, T/C [4]: 46.9%
viability, T/C [5]: 5.62%
viability, T/C [6]: 0.13%
viability, T/C [7]: 46.3%
viability, T/C [8]: 34.2%
viability, T/C [9]: 26.3%
viability, T/C [10]: 18%
viability, T/C [11]: 5.92%
viability, T/C [12]: 0.13%
viability, T/C [13]: 13.6%
viability, T/C [14]: 14.5%
viability, T/C [15]: 16.9%
viability, T/C [16]: 19%
viability, T/C [17]: 5.1%
viability, T/C [18]: 0.13%
viability, T/C [19]: 8.73%
viability, T/C [20]: 8.03%
viability, T/C [21]: 10.2%
viability, T/C [22]: 8.96%
viability, T/C [23]: 3.31%
viability, T/C [24]: 0.13%
viability, T/C [25]: 3.51%
viability, T/C [26]: 3.44%
viability, T/C [27]: 3.53%
viability, T/C [28]: 3.41%
viability, T/C [29]: 1.38%
viability, T/C [30]: 0.19%

Cn1ncnc1[C@H]1c2n[nH]c(=O)c3cc(F)cc(c23)N[C@@H]1c1ccc(F)cc1 + CC[C@@]1(O)C(=O)OCc2c1cc1n(c2=O)Cc2cc3c(CN(C)C)c(O)ccc3nc2-1
IC50 (second compound 0.003 µM): 57.9 nM
IC50 (second compound 0.00949 µM): < 9.49 nM
IC50 (second compound 0.03 µM): < 9.49 nM
IC50 (second compound 0.0949 µM): < 9.49 nM
IC50 (second compound 0.3 µM): < 9.49 nM
viability, T/C [1]: 71%
viability, T/C [2]: 60.4%
viability, T/C [3]: 36%
viability, T/C [4]: 39.9%
viability, T/C [5]: 6.31%
viability, T/C [6]: 0.18%
viability, T/C [7]: 44.6%
viability, T/C [8]: 37.4%
viability, T/C [9]: 29%
viability, T/C [10]: 19.4%
viability, T/C [11]: 6.41%
viability, T/C [12]: 0.15%
viability, T/C [13]: 14.9%
viability, T/C [14]: 28.7%
viability, T/C [15]: 18.9%
viability, T/C [16]: 18%
viability, T/C [17]: 5.53%
viability, T/C [18]: 0.13%
viability, T/C [19]: 9.15%
viability, T/C [20]: 28.8%
viability, T/C [21]: 10.8%
viability, T/C [22]: 10.3%
viability, T/C [23]: 3.73%
viability, T/C [24]: 0.14%
viability, T/C [25]: 3.72%
viability, T/C [26]: 3.65%
viability, T/C [27]: 3.75%
viability, T/C [28]: 3.83%
viability, T/C [29]: 1.56%
viability, T/C [30]: 13.9%

O=C(c1cc(Cc2n[nH]c(=O)c3ccccc23)ccc1F)N1CCN(C(=O)C2CC2)CC1 + CC[C@@]1(O)C(=O)OCc2c1cc1n(c2=O)Cc2cc3c(CN(C)C)c(O)ccc3nc2-1
IC50 (second compound 0.003 µM): 325 nM
IC50 (second compound 0.00949 µM): < 94.9 nM
IC50 (second compound 0.03 µM): < 94.9 nM
IC50 (second compound 0.0949 µM): < 94.9 nM
IC50 (second compound 0.3 µM): < 94.9 nM
viability, T/C [3]: 60.1%
viability, T/C [4]: 49.8%
viability, T/C [5]: 41.9%
viability, T/C [6]: 30.9%
viability, T/C (second compound 0.003 µM, first compound 9.49 µM): 22%
viability, T/C (second compound 0.003 µM, first compound 30 µM): 16%
viability, T/C [9]: 21.2%
viability, T/C [10]: 21%
viability, T/C [11]: 19.2%
viability, T/C [12]: 20.6%
viability, T/C (second compound 0.00949 µM, first compound 9.49 µM): 35.5%
viability, T/C (second compound 0.00949 µM, first compound 30 µM): 15.7%
viability, T/C [15]: 12.3%
viability, T/C [16]: 12.6%
viability, T/C [17]: 13.7%
viability, T/C [18]: 23.3%
viability, T/C (second compound 0.03 µM, first compound 9.49 µM): 18.2%
viability, T/C (second compound 0.03 µM, first compound 30 µM): 14.3%
viability, T/C [21]: 35.7%
viability, T/C [22]: 7.72%
viability, T/C [23]: 8.21%
viability, T/C [24]: 10%
viability, T/C (second compound 0.0949 µM, first compound 9.49 µM): 12.8%
viability, T/C (second compound 0.0949 µM, first compound 30 µM): 14.4%
viability, T/C [27]: 4.06%
viability, T/C [28]: 3.8%
viability, T/C [29]: 4.04%
viability, T/C [30]: 5.04%
viability, T/C (second compound 0.3 µM, first compound 9.49 µM): 13.5%
viability, T/C (second compound 0.3 µM, first compound 30 µM): 9.66%
